Laboratory results as given in patent publication US11192849B2, “Compounds, compositions, and methods for modulating ferroptosis and treating excitotoxic disorders” (THE TRUSTEES OF COLUMBIA UNIVERSITY IN THE CITY OF NEW YORK, priority 2013, dated 2021).

These compounds were tested on HT-1080 cells (assay: Inhibition of erastin (10 μM)-induced death in HT-1080 cells (Alamar Blue)). Conditions: HT-1080, erastin (10 μM).
Format: cell-based, human
Experimental: Cell viability was typically assessed in 384-well format by Alamar Blue (Invitrogen) fluorescence (ex/em 530/590) measured on a Victor3 platereader (Perkin Elmer, Waltham, Mass.). In some experiments, Trypan Blue dye exclusion counting was performed using an automated cell counter (ViCell, Beckman-Coulter Inc., Brea, Calif.). Cell viability in test conditions is reported as a percentage relative to the negative control treatment.
The ability of various compounds disclosed herein to inhibit death in erastin (10 μM)-treated HT-1080 cells were tested. Cell viability was assessed by Alamar Blue. EC50 values (nM) were computed from dose response curves.
HT-1080 cells are cultured in DMEM containing 10% fetal bovine serum, 1% supplemented non-essential amino acids and 1% pen/strep mixture (Gibco) and maintained in a humidified environment at 37° C. with 5% CO2 in a tissue culture incubator. 1,000 HT-1080 cells are seeded per well in duplicate 384-well plates (Corning) using a BioMek FX liquid handling robot (Beckman Coulter). The next day, the medium is replaced with 36 μL of medium containing 10 μM erastin with 4 μL of medium containing a dilution series (previously prepared) of DMSO, Fer-1 (positive control) or Fer-1 analogs. 24 hours later, 10 μL Alamar Blue (Invitrogen) cell viability solution is added to the growth media to a final concentration of 10%. Cells are incubated a further 6 hours and then the Alamar Blue fluorescence intensity recorded using a Victor 3 platereader (PerkinElmer)(ex/em 530/590). All experiments are performed at least twice and the background (no cells)-subtracted Alamar Blue values for each combination are averaged between replicates.

In the case of `CCOC(=O)c1ccc(NC2CCCCC2)c(NCc2ccncc2)c1` [SRS12-45, ethyl 4-(cyclohexylamino)-3-((pyridin-4-ylmethyl)amino)-benzoate], the “potency compared with Fer-1” value is reported as “more potent than Fer-1”.

Same assay, conditions: Homo sapiens, HT-1080, SI Table 2, analogs with various hydrophobic moieties; read-out: EC50

Point of comparison: `CCCCCCCCNc1ccc(C(=O)OCC)cc1N` [SRS8-94, ethyl 3-amino-4-(octylamino)benzoate], EC50 80 nM. Against it:
- CCOC(=O)c1ccc(NC2CCCCCCC2)c(N)c1 [SRS8-70, ethyl 3-amino-4-(cyclooctylamino)benzoate] — the same, 80 nM
- CCOC(=O)c1ccc(NC2CCCCCCCCCCC2)c(N)c1 [SRS9-06, ethyl 3-amino-4-(cyclododecylamino)benzoate] — within 1.5-fold, 70 nM

Same assay, conditions: Homo sapiens, HT-1080, SI Table 3, cyclic amines bearing heteroatoms; read-out: EC50

`CCOC(=O)c1ccc(NC2CCC(N)CC2)c(N)c1` (centres unmarked) [SRS8-80, ethyl 3-amino-4-(4-aminocyclohexylamino)benzoate] showed an EC50 of 380 nM.

Same assay, conditions: Homo sapiens, HT-1080, SI Table 4, various R3 substitutions; read-out: EC50

Point of comparison: `CCCCCCCCCCOC(=O)c1ccc(NC2CCCCC2)c(N)c1` [SRS12-29, decyl 3-amino-4-(cyclohexylamino)benzoate], EC50 76 nM. Against it:
- COC(=O)c1ccc(NC2CCCCC2)c(N)c1 [SRS8-61, methyl 3-amino-4-(cyclohexylamino)benzoate] — 2-fold higher, 150 nM
- Nc1ccccc1NC1CCCCC1 [SRS8-75, N1-cyclohexylbenzene-1,2-diamine] — 4.3-fold higher, 330 nM
- CC(C)(C)OC(=O)c1ccc(NC2CCCCCCC2)c(N)c1 [SRS8-87, tert-butyl 3-amino-4-(cyclooctylamino)benzoate] — within 1.5-fold, 90 nM
- Nc1cc(C(=O)OCCN2CCOCC2)ccc1NC1CCCCC1 [SRS12-47, 2-morpholinoethyl 3-amino-4-(cyclohexylamino)benzoate] — 8.7-fold higher, 660 nM

Same assay, conditions: Homo sapiens, HT-1080, SI Table 5; read-out: EC50

Point of comparison: `CCOC(=O)c1ccc(NC2CCCCCCC2)c(N)c1` [SRS8-70, ethyl 3-amino-4-(cyclooctylamino)benzoate], EC50 69 nM. Against it:
- CCOC(=O)c1ccc(NC2CCCCCCC2)c(NC(=O)OC(C)(C)C)c1 [SRS8-91, ethyl 3-(tert-butoxycarbonylamino)-4-(cyclooctylamino)-benzoate] — higher, > 10000 nM
- CCCCCCCCNc1ccc(C(=O)OCC)cc1N [SRS8-94, ethyl 3-amino-4-(octylamino)benzoate] — within 1.5-fold, 80 nM
- CCOC(=O)c1ccc(NC2CCCCCCC2)c(N(C)C)c1 [SRS9-01, ethyl 4-(cyclooctylamino)-3-(dimethylamino)benzoate] — 43-fold higher, 3000 nM
- CCOC(=O)c1ccc(NC2CCCCCCC2)c(NC)c1 [SRS9-14, ethyl 4-(cyclooctylamino)-3-(methylamino)benzoate] — within 1.5-fold, 70 nM
- CCOC(=O)c1ccc(NC2CCCCC2)c(NC(=O)OCc2ccccc2)c1 [SRS11-89, ethyl 3-(benzyloxycarbonylamino)-4-(cyclohexylamino)-benzoate] — higher, > 10000 nM
- CCOC(=O)c1ccc(NC2CCCCC2)c(NC(=O)OC)c1 [SRS11-97, ethyl 4-(cyclohexylamino)-3-(methoxycarbonylamino)benzoate] — higher, > 10000 nM
- CCOC(=O)c1ccc(NC2CCCCC2)c(NC(C)=O)c1 [SRS11-98, ethyl 4-(cyclohexylamino)-3-ethanamidobenzoate] — higher, > 10000 nM
- CCCCCCCCN(CCCCCCCC)c1ccc(C(=O)OCC)cc1N [SRS12-12, ethyl 3-amino-4-(dioctylamino)benzoate] — 220-fold higher, 15300 nM

Same assay, conditions: Homo sapiens, HT-1080, SI Table 6; read-out: EC50

Point of comparison: `CCOC(=O)c1ccc(NC2CCCCC2)c(NCc2ccc(C#N)cc2)c1` [SRS12-50, ethyl 3-(4-cyanobenzylamino)-4-(cyclohexylamino)benzoate], EC50 100 nM. Against it:
- CCOC(=O)c1ccc(NC2CCCCC2)c(NCc2ccc(F)cc2)c1 [SRS12-33, ethyl 4-(cyclohexylamino)-3-((4-fluorobenzyl)amino)benzoate] — 2-fold lower, 50 nM
- CCOC(=O)c1ccc(NC2CCCCC2)c(NCc2ccc(C)cc2)c1 [SRS12-34, ethyl 4-(cyclohexylamino)-3-((4-methylbenzyl)amino)benzoate] — 2.5-fold lower, 40 nM
- CCOC(=O)c1ccc(NC2CCCCC2)c(NCc2ccc(Br)cc2)c1 [SRS12-35, ethyl 3-((4-bromobenzyl)amino)-4-(cyclohexylamino)benzoate] — 2.3-fold lower, 44 nM
- CCOC(=O)c1ccc(NC2CCCCC2)c(NCc2ccc([N+](=O)[O-])cc2)c1 [SRS12-36, ethyl 4-(cyclohexylamino)-3-((4-nitrobenzyl)amino)benzoate] — 2.8-fold lower, 36 nM
- CCOC(=O)c1ccc(NC2CCCCC2)c(NCc2ccc(OC)cc2)c1 [SRS12-43, ethyl 4-(cyclohexylamino)-3-((4-methoxybenzyl)amino)-benzoate] — within 1.5-fold, 69 nM
- CCOC(=O)c1ccc(NC2CCCCC2)c(NCc2ccc(C(F)(F)F)cc2)c1 [SRS12-48, ethyl 4-(cyclohexylamino)-3-(4-(trifluoromethyl)benzylamino)-benzoate] — 2.2-fold lower, 46 nM
- CCOC(=O)c1ccc(NC2CCCCC2)c(NCc2ccc(Cl)cc2)c1 [SRS12-49, ethyl 3-(4-chlorobenzylamino)-4-(cyclohexylamino)benzoate] — 3.7-fold higher, 371 nM
- CCOC(=O)c1ccc(NC2CCCCC2)c(NCc2cccc(F)c2)c1 [SRS12-57, ethyl 4-(cyclohexylamino)-3-(3-fluorobenzylamino)benzoate] — the same, 100 nM
- CCOC(=O)c1ccc(NC2CCCCC2)c(NCc2cccc(Cl)c2)c1 [SRS12-58, ethyl 3-(3-chlorobenzylamino)-4-(cyclohexylamino)benzoate] — 2.4-fold lower, 41 nM
- CCOC(=O)c1ccc(NC2CCCCC2)c(NCc2ccccc2[N+](=O)[O-])c1 [SRS12-71, ethyl 4-(cyclohexylamino)-3-(2-nitrobenzylamino)benzoate] — within 1.5-fold, 126 nM

Same assay, conditions: Homo sapiens, HT-1080, SI Table 7; read-out: EC50

Point of comparison: `CCOC(=O)c1ccc(NC2CCCCC2)c(NCc2ccccn2)c1` [SRS12-46, ethyl 4-(cyclohexylamino)-3-(pyridin-2-ylmethylamino)-benzoate], EC50 33 nM. Against it:
- CCOC(=O)c1ccc(NC2CCCCC2)c(NCc2ccncc2)c1 [SRS12-45, ethyl 4-(cyclohexylamino)-3-((pyridin-4-ylmethyl)amino)-benzoate] — within 1.5-fold, 25 nM
- CCOC(=O)c1ccc(NC2CCCCC2)c(NCc2ccc3ccccc3c2)c1 [SRS12-51, ethyl 4-(cyclohexylamino)-3-(naphthalen-2-ylmethylamino)-benzoate] — 1.8-fold higher, 58 nM
- CCOC(=O)c1ccc(NC2CCCCC2)c(NCc2cc(F)cc(Br)c2)c1 [SRS12-52, ethyl 3-(3-bromo-5-fluorobenzylamino)-4-(cyclohexylamino)-benzoate] — 3.2-fold higher, 105 nM
- CCOC(=O)c1ccc(NC2CCCCC2)c(NCc2cc(OC)cc(OC)c2)c1 [SRS12-53, ethyl 4-(cyclohexylamino)-3-(3,5-dimethoxybenzylamino)-benzoate] — within 1.5-fold, 41 nM
- CCOC(=O)c1ccc(NC2CCCCC2)c(NCc2ccc(F)c(C#N)c2)c1 [SRS12-54, ethyl 3-(3-cyano-4-fluorobenzylamino)-4-(cyclohexylamino)-benzoate] — 4.8-fold higher, 159 nM
- CCOC(=O)c1ccc(NC2CCCCC2)c(NCc2cc(F)cc(F)c2)c1 [SRS12-59, ethyl 4-(cyclohexylamino)-3-(3,5-difluorobenzylamino)-benzoate] — 2.9-fold higher, 96 nM
- CCOC(=O)c1ccc(NC2CCCCC2)c(NCc2ccc(C(=O)OC)cc2)c1 [SRS12-80, ethyl 4-(cyclohexylamino)-3-(4-(methoxycarbonyl)-benzylamino)benzoate] — the same, 33 nM
- CCOC(=O)c1ccc(CNc2cc(C(=O)OCC)ccc2NC2CCCCC2)cc1 [SRS12-84, ethyl 4-(cyclohexylamino)-3-(4-(ethoxycarbonyl)benzylamino)-benzoate] — 1.6-fold higher, 53 nM
- CCOC(=O)c1ccc(NC2CCCCC2)c(NCc2cccnc2)c1 [SRS13-12, ethyl 4-(cyclohexylamino)-3-(pyridin-3-ylmethylamino)-benzoate] — within 1.5-fold, 48 nM
- CCOC(=O)c1ccc(NC2CCC(C(C)(C)C)CC2)c(NCc2ccncc2)c1 (centres unmarked) [SRS13-30, ethyl 4-(4-tert-butylcyclohexylamino)-3-(pyridin-4-ylmethylamino)benzoate] — 3.5-fold higher, 114 nM

Same assay, conditions: Homo sapiens, HT-1080, Table 1 (Example 10); erastin (10 μM)-treated HT-1080 cells; read-out: EC50

Point of comparison: `CCOC(=O)c1ccc(NC2C3CC4CC(C3)CC2C4)c(N(Cc2ccccc2)Cc2ccccc2)c1` (centres unmarked) [SRS15-20_di, ethyl 3-(dibenzylamino)-4-(2-adamantylamino)benzoate], EC50 914 nM. Against it:
- CCOC(=O)c1ccc(NC2C3CC4CC(C3)CC2C4)c(N)c1 (centres unmarked) [SRS15-17, ethyl 3-amino-4-(2-adamantylamino)benzoate] — 5.3-fold lower, 171 nM
- CCOC(=O)c1ccc(NC23CC4CC(CC(C4)C2)C3)c(N)c1 [SRS15-18, ethyl 3-amino-4-(1-adamantylamino)benzoate] — 10-fold lower, 87.7 nM
- CCOC(=O)c1ccc(NC2C3CC4CC(C3)CC2C4)c(NCc2ccccc2)c1 (centres unmarked) [SRS15-20_mono, ethyl 3-(benzylamino)-4-(2-adamantylamino)benzoate] — 42-fold lower, 21.7 nM
- CCOC(=O)c1ccc(NC2C3CC4CC(C3)CC2C4)c(NCc2ccncc2)c1 (centres unmarked) [SRS15-21, ethyl 4-(2-adamantylamino)-3-((pyridin-4-ylmethyl)amino)-benzoate] — 40-fold lower, 23 nM

Same assay, conditions: SI Table 2, analogs with various hydrophobic moieties; read-out: EC50

Point of comparison: `CCOC(=O)c1ccc(NC2CCCCCC2)c(N)c1` [SRS8-90], EC50 130 nM. Against it:
- CCOC(=O)c1ccc(NC2CCCC2)c(N)c1 [SRS8-73] — within 1.5-fold, 120 nM

Same assay, conditions: SI Table 8; read-out: EC50

For `CCOC(=O)c1ccc(Cl)c(N)c1` [SRS8-62], the EC50 was greater than 10000 nM.

Same assay, conditions: Table 1 (Example 10); erastin (10 μM)-treated HT-1080 cells

For `CCOC(=O)c1ccc(NC23CC4CC(CC(C4)C2)C3)c([N+](=O)[O-])c1` [SRS15-15], the “EC50 (nM)” value was “Not active”.
